The source of these data is patent US11992491B2, “Crystalline salts of 5-methyl-(6S)-tetrahydrofolic acid and L-valine ethyl ester” (Merck Patent GmbH, priority 2018, dated 2024).

For data set [1] the following is noted: cited from earlier work; for aqueous solubility: at room temperature, known values for calcium salt polymorphs.
The conditions of data set [2]: for kinetic solubility: 42.5 mg in 2.00 mL purified/de-ionized water, agitated at room temperature for one minute, filtered, gravimetric evaluation of residue. As to the method:
(§1) 42.5 mg of the anhydrous form of the crystalline 5-methyl-(6S)-tetrahydrofolic acid L-valine ethyl ester salt (Form A) according to Example 2 was weighed into a 7 mL glass vial with a screw cap. 2.00 mL of purified/de-ionized water (for instance water for chromatography) was added to the solid using an adjustable volumetric pipette. The mixture was vigorously agitated at room temperature for one minute. […] The dilute suspension was filtered by centrifugal filtration and 1.50 mL of the aqueous solution was transferred into a tared glass vial (about 10 mL volume). The water was evaporated in an air dryer at 40° C. for about 15 hours, then at 50° C. for about eight hours, subsequently drying was completed at 50° C. under vacuum (10 to 20 mbar) for about 13 hours. The solubility was determined by gravimetric evaluation of the solid residue.
as §1, with “calcium” for “L-valine ethyl ester”, “salt” for “salt (Form A) according to Example 2”, “The” for “The dilute”

The conditions of data set [3]: relative humidity range from 0 to 55%; RH scans 5% per hour. From the text: DVS measurements are typically performed with an SPS11-100n “Sorptions Prüfsystem” from ProUmid (formerly “Projekt Messtechnik”), August-Nagel-Str. 23, 89079 Ulm (Germany).
23, 89079 Ulm (Germany). For relative humidity (RH) scans, change rates of 5% per hour were used.

As to `CN1c2c(nc(N)[nH]c2=O)NC[C@@H]1CNc1ccc(C(=O)N[C@@H](CCC(=O)O)C(=O)O)cc1` [5-methyl-(6S)-tetrahydrofolic acid], in data set [1] (water), the “solubility in water (in words)” value was “poorly soluble”.

On to `CN1c2c([nH]c(N)nc2=O)NC[C@@H]1CNc1ccc(C(=O)N[C@@H](CCC(=O)[O-])C(=O)[O-])cc1.[Ca+2]` [calcium salt (Form Ill), calcium salt of 5-methyl-(6S)-tetrahydrofolic acid], for which the aqueous solubility entry in data set [1] is “about 2.5 mg/ml”. Regarding “5-methyl-(6S)-tetrahydrofolic acid L-valine ethyl ester salt”, the kinetic solubility in data set [2] is recorded as 12.5 mg of 5-methyl-(6S)-tetrahydrofolic acid per mL. For the same compound, in data set [2] (versus calcium salt Form 1), the “improvement of kinetic solubility versus the known metastable Form 1 of the calcium salt” value was “about 50%”. Besides, the “change of relative sample mass (DVS)” value in data set [3] is recorded as “less than 1%”. With `CN1c2c([nH]c(N)nc2=O)NC[C@@H]1CNc1ccc(C(=O)N[C@@H](CCC(=O)[O-])C(=O)[O-])cc1.[Ca+2]` [metastable Form I, calcium salt of 5-methyl-(6S)-tetrahydrofolic acid], the aqueous solubility result in data set [1] was “about 10 mg/ml”.

Consider “5-methyl-(6S)-tetrahydrofolic acid calcium salt”, for which the kinetic solubility in data set [2] was 9.0 mg of 5-methyl-(6S)-tetrahydrofolic acid per mL. The “change of relative sample mass (DVS)” value in data set [3] was “about 6%”.
